# Measurements reported in PMC12196476, “New Nitrogen-, Oxygen-, and Sulfur-Containing Heterocyclic Compounds as Anti-Colon Cancer Agents: Synthesis, Multitargeted Evaluations, Molecular Docking Simulations and ADMET Predictions” (Pharmaceuticals, 2025).
# Values joined by “and” are separate entries in the source; they are usually repeats but may differ in a detail not shown here. Equal values may be shown once.
# Columns and labels:
# [1] = tested on: HCT-116 colon carcinoma cells; assay: Cell viability, LDH release assay, HCT-116; conditions: Homo sapiens, HCT-116, 48 h
# HCT-116 cells [2] = assay: Intracellular ROS level (human ROS ELISA kit), HCT-116; type: cell-based; conditions: 30 µg/mL, 48 h
# Procedure: (§1) To determine whether compound 3d induces oxidative stress, intracellular ROS levels were quantified after treatment (30 µg/mL, 48 h) using a human ROS ELISA kit.
# (§2) A Human ROS ELISA Kit was used to measure the intracellular accumulation of ROS in the 3d-treated LoVo and HCT-116 cells. […]
# (§3) medium served used as negative and positive controls, respectively. Percentages of viable cells […]
# (§4) wells (final concentration of 100 μg/mL), compared to the negative control, and expressed as mean value (%) ± SD from two replicates. Graphing dose-response curves representing the compound […]
# (§5) (HUVECs) at final concentration of 100 μg/mL . HUVECs were grown in Dulbecco’s Modified Eagle’s Medium supplemented with 10% FBS, 2 mM glutamine (Sigma Aldrich), 100 units/mL penicillin and […] streptomycin (Life Technologies; Paisley, UK).
# (§6) S3.2.5. Cell cycle assay.
# (§7) HCT-116 and LoVo cultures upon treatment with compound 3d. HCT-116 and LoVo carcinoma […]
# (§8) μg/mL for 48 h. […] Then, cells […]
# (§9) were fixed by mixing […] of 90% cold ethanol and stained with propidium iodide (PI) for 1 h at 37 °C. RNase A (10 mg/mL) was added in order to […] the ability of PI to bind only to DNA […]
# (§10) S3.2.6. Annexin-V-FITC assay. […]
# (§11) treatment with compound 3d. […]
# (§12) of stained cancerous cells were determined. […]
# (§13) carcinoma cells treated with compound 3d was assessed using the TMRE Mitochondrial Membrane
# LoVo cells [3] = assay: Cell cycle assay (PI flow cytometry), LoVo; type: cell-based, human; conditions: 30 µg/mL, 48 h, mean of n = 2 (Figure 1E); untreated control 11.51 ± 1.24%
# Procedure: Cell proliferation depends on orderly progression through the phases of the cell cycle (G1−S−G2−M). Cytotoxic agents can impair the integrity of DNA, leading to checkpoint arrest at G1/S or G2/M, which subsequently blocks proliferation. To evaluate the impact of compound 3d on cell cycle distribution, colon carcinoma cells were treated with 30 µg/mL of 3d for 48 h, followed by DNA content analysis using flow cytometry. […] In contrast, in HCT-116 cells, 3d caused an accumulation in the G1 phase, reaching 60.17 ± 1.44% versus 47.37 ± 1.68% in untreated cells (Figure 1E). […]
# as §3, §4, §5, §6, §7, §8, §12, §13
# LoVo cells [4] = assay: Intracellular ROS level (human ROS ELISA kit), LoVo; type: cell-based; conditions: 30 µg/mL, 48 h
# Procedure: as §1, §2, §3, §4, §5, §6, §7, §8, §9, §10, §11, §12, §13
# HCT-116 cells [5] = assay: Annexin V-FITC/PI apoptosis assay, HCT-116; type: cell-based, human; conditions: 30 µg/mL, 48 h
# Procedure: Translocation of phosphatidylserine (PS) residues on the cell surface is an early apoptosis indicator, detectable through flow cytometric analysis and using double staining with propidium iodide (PI) dye and fluorescein isothiocyanate (FITC)-conjugated Annexin V (Annexin V-FITC). […]
# μg/mL for 48 h. […]
# as §10
# treatment with compound 3d. HCT-116 and LoVo cells were treated with vehicle (DMSO) and 3d […]
# in Annexin-V binding buffer (BioVision Research Products, USA). The cells were then stained with Annexin V-FITC and propidium iodide (PI). Using the FITC signal detector (usually FL1) for […]
# as §12
compound,measurement,setting,value
"COc1cc(/C=N/c2ncnc3sc4c(c23)CCCC4)cc(OC)c1OC [Compound 3d, (E)-N-(5,6,7,8-Tetrahydrobenzo[4,5]thieno[2,3-d]pyrimidin-4-yl)-1-(3,4,5-trimethoxyphenyl)methanimine]",viability at 100 µg/mL,"[1]; read-out: Mean % of viable cells ± SD, HCT-116, 100 µg/mL, 48 h, LDH release assay",< 29%
same,IC50,"[1]; read-out: Mean IC50 Values in µM ± SD, HCT-116 cells",161 µM
same,"ROS, Fold of control, HCT-116",HCT-116 cells [2],2.0
same,"[ROS] pg/mL ± SD, HCT-116","HCT-116 cells [2]; control 143.5 ± 6.8, two independent experiments",290.1 ± 12.7 pg/mL and 290.1 pg/mL
same,"% of Cell population, LoVo: %G2/M",LoVo cells [3],24.06 ± 1.32%
same,"ROS, Fold of control, LoVo",LoVo cells [4],2.6
same,"[ROS] pg/mL ± SD, LoVo","LoVo cells [4]; control 168.6 ± 6.5, two independent experiments",434.5 ± 20.3 pg/mL and 434.5 pg/mL
same,"Necrotic population (Annexin-V−/PI+), HCT-116",HCT-116 cells [5]; Figure 3D plot,1.53%
same,"Late apoptotic cells (both Annexin-V and PI positive), HCT-116","HCT-116 cells [5]; Figure 3D plot, control 0.15%",3.63%
same,"Early apoptotic cells (Annexin V-FITC positive and PI negative), HCT-116","HCT-116 cells [5]; Figure 3D plot, control 0.46%",19.02%
same,"% of cell population, Mean necrosis (HCT-116)",HCT-116 cells [5]; mean of two independent experiments (Figure 3E),1.63%
same,"% of cell population, Mean total death (HCT-116)","HCT-116 cells [5]; mean of two independent experiments (Figure 3E), text calls it total apoptosis",25.11%
